For series [1] the following is noted: in vivo; cited from earlier work.
The subject of the next series is diabetic rats. As to conditions: cited from earlier work.
For a further series, the target named is Human KLK1 (Homo sapiens (Human), UniProt P06870). The series is described as follows: Determination of the IC50 for KLK1 (fluorogenic substrate H-DVal-Leu-Arg-AFC). Format: biochemical. As to conditions: 37° C. How it is done: Determination of the IC50 for KLK1
Human KLK1 (Callbiochem) was incubated at 37° C. with the fluorogenic substrate H-DVal-Leu-Arg-AFC and various concentrations of the test compound. Residual enzyme activity (initial rate of reaction) was determined by measuring the change in […] at 410 nm and the IC50 value for the test compound was determined.

For another series, the target named is Factor XIIa (Homo sapiens (Human), UniProt P00748). The series is described as follows: Determination of enzyme selectivity, Factor XIIa. The series is classed as biochemical. As to conditions: substrate at Km concentration.
Factor XIIa, sequence (P00748 373-615): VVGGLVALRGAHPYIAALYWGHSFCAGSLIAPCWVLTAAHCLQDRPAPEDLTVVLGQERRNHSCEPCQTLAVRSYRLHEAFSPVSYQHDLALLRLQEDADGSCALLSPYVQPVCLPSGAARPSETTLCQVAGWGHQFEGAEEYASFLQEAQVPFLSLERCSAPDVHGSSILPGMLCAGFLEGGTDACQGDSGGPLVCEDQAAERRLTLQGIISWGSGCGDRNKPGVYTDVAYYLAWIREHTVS
In the next series the target is trypsin. Nature of the series: Determination of enzyme selectivity, trypsin. The series is classed as biochemical, human. As to conditions: substrate at Km concentration. As to the method: (§1) Determination of Enzyme Selectivity
(§2) Human serine protease enzymes plasmin, thrombin, trypsin, Factor Xa and Factor XIIa were assayed for enzymatic activity using an appropriate fluorogenic substrate. Protease activity was measured by monitoring the accumulation of liberated fluorescence from the substrate over 5 minutes. The linear rate of fluorescence increase per minute was expressed as percentage (%) activity. The Km for the cleavage of each substrate was determined by standard transformation of the Michaelis-Menten equation.

In the next series the target is plasmin (Homo sapiens (Human), UniProt P00747). Nature of the series: Determination of enzyme selectivity, plasmin. The series is classed as biochemical. As to conditions: substrate at Km concentration. How it is done: as §1, §2
plasmin, sequence (P00747 581-810): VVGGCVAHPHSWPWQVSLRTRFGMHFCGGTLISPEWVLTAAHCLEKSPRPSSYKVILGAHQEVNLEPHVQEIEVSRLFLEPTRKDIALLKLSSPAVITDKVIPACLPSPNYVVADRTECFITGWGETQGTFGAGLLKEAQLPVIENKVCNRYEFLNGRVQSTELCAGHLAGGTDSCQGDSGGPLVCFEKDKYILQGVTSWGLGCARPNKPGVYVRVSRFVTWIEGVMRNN
plasmin, sequence (P00747 97-580 partner): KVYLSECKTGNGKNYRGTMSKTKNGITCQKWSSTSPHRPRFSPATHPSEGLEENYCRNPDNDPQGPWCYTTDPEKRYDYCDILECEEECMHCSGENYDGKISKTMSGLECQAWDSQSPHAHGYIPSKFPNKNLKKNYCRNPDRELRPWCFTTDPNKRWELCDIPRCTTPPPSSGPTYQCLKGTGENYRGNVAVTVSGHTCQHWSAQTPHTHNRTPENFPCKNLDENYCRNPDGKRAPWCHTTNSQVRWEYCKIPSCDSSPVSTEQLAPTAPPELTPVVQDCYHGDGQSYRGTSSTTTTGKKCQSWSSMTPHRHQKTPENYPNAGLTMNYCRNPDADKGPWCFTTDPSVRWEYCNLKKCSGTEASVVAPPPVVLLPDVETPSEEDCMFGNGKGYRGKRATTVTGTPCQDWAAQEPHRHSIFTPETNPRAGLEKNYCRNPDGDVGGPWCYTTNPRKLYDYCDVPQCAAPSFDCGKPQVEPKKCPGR
For the next series, the target named is thrombin (Homo sapiens (Human), UniProt P00734). The series is described as follows: Determination of enzyme selectivity, thrombin. The series is classed as biochemical. As to conditions: substrate at Km concentration. How it is done: as §1, §2
The target in another series is Human plasma kallikrein (Homo sapiens (Human), UniProt P03952). Nature of the series: Determination of the IC50 for plasma kallikrein (fluorogenic substrate H-DPro-Phe-Arg-AFC). As to conditions: 37° C., read-out: IC50 (human PKaI). Format: biochemical. As to the method: Determination of the IC50 for Plasma Kallikrein
Human plasma kallikrein, sequence (P03952 391-638): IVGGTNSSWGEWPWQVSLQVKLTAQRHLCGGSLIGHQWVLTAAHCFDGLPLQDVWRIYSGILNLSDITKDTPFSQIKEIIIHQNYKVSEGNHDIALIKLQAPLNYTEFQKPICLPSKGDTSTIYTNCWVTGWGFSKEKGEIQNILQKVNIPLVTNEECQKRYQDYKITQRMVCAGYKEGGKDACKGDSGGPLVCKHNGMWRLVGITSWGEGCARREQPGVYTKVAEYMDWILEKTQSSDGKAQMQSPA
Human plasma kallikrein, sequence (P03952 20-390 partner): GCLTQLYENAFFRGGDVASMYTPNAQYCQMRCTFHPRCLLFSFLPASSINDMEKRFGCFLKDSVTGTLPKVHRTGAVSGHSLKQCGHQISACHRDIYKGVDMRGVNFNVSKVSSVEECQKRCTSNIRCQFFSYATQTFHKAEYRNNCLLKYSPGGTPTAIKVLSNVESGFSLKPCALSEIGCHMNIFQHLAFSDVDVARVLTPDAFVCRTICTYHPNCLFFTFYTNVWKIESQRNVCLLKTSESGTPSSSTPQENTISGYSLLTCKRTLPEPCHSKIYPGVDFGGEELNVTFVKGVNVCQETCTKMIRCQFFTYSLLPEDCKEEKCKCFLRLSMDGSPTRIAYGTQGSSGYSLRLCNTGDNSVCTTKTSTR
Human plasma kallikrein (Protogen) was incubated at 37° C. with the fluorogenic substrate H-DPro-Phe-Arg-AFC and various concentrations of the test compound. Residual enzyme activity (initial rate of reaction) was determined by measuring the change in […] at 410 nm and the IC50 value for the test compound was determined.

Series [2] can be described thus: Pharmacokinetics following a single oral dose in male Sprague-Dawley rats. The series is classed as in vivo. As to conditions: rat, plasma. How it is done:
Pharmacokinetic studies of the compounds in Table 16 were performed to assess the pharmacokinetics following a single oral dose in male Sprague-Dawley rats. […] Following dosing, blood samples were collected over a period of 24 hours. Sample times were 5, 15 and 30 minutes then 1, 2, 4, 6, 8, 12 and 24 hours. Following collection, blood samples were centrifuged and the plasma fraction analysed for concentration of test compound by LCMS.

The conditions of series [3]: in vivo; cited from earlier work. The source holds these as a separate data set.

Human KLK1, sequence (P06870 25-262): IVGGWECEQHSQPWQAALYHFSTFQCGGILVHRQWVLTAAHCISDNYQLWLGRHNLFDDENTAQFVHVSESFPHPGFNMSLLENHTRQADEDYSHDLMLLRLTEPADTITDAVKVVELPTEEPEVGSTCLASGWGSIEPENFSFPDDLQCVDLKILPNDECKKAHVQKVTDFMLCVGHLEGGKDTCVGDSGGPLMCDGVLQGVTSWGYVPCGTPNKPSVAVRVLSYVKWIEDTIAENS

For the compound `N=C(N)c1ccc(CNC(=O)c2cnn(Cc3ccccc3)c2)cc1` [ASP-440], in [1], the oral availability entry is listed as “poor oral availability”. The “effect on retinal vascular permeability and retinal blood flow abnormalities” value in the series on diabetic rats is “ameliorated both retinal vascular permeability and retinal blood flow abnormalities”.
As for `Cc1cc(C(=O)NCc2ccc3c(N)nccc3c2)c(C)n1Cc1csc(-c2ccccc2)n1` [Example 1, 2,5-Dimethyl-1-(2-phenyl-thiazol-4-ylmethyl)-1H-pyrrole-3-carboxylic acid (1-amino-isoquinolin-6-ylmethyl)-amide], the IC50 at Human KLK1 was more than 10 µM; against Factor XIIa, more than 10000 nM; on trypsin it was more than 40000 nM; at plasmin it was more than 40000 nM; on thrombin it was more than 40000 nM; at Human plasma kallikrein, 0.0547 µM.
With `Cc1cnn(Cc2ccc(Cn3cc(C(=O)NCc4ccc5c(N)nccc5c4)c(C)n3)cc2)c1` [Example 11, 3-Methyl-1-[4-(4-methyl-pyrazol-1-ylmethyl)-benzyl]-1H-pyrazole-4-carboxylic acid (1-amino-isoquinolin-6-ylmethyl)-amide], the values for the IC50 against Human KLK1, on Factor XIIa and at Human plasma kallikrein were 8.86 µM, more than 10000 nM and 0.00189 µM, respectively. For the same compound, in [2] (single po dose 10 mg/kg), the peak level (Cmax) was 134 ng/mL. Also, the Tmax in series [2] (single po dose 10 mg/kg) is 23 min.
On to `Cc1cnn(Cc2ccc(Cn3cc(C(=O)NCc4ccc5c(N)nccc5c4)c(C4CC4)n3)cc2)c1` [Example 12, 3-Cyclopropyl-1-[4-(4-methyl-pyrazol-1-ylmethyl)-benzyl]-1H-pyrazole-4-carboxylic acid (1-amino-isoquinolin-6-ylmethyl)-amide], for which the IC50 was 6.06 µM at Human KLK1, more than 10000 nM on Factor XIIa and 0.00258 µM on Human plasma kallikrein. The same compound yielded a Cmax in [2] (single po dose 10 mg/kg) of 155 ng/mL. The Tmax in [2] (single po dose 10 mg/kg) is 30 min.
In the case of `Nc1nccc2cc(CNC(=O)c3cn(Cc4ccc(N5CCCC5)nc4)nc3C(F)(F)F)ccc12` [Example 24, 1-(6-Pyrrolidin-1-yl-pyridin-3-ylmethyl)-3-trifluoromethyl-1H-pyrazole-4-carboxylic acid (1-amino-isoquinolin-6-ylmethyl)-amide], the values for the IC50 against Human KLK1, on Factor XIIa and at Human plasma kallikrein were more than 4 µM, more than 1000 nM and 0.00966 µM, respectively. In series [2] (single po dose 4 mg/kg), this compound registered a Cmax of 97 ng/mL. Moreover, in series [2] (single po dose 4 mg/kg), the Tmax is 420 min.
With `Cc1cnn(Cc2ccc(Cn3cc(C(=O)NCc4ccc5c(N)nccc5c4)c(C(F)(F)F)n3)cc2)c1` [Example 36, 1-[4-(4-Methyl-pyrazol-1-ylmethyl)-benzyl]-3-trifluoromethyl-1H-pyrazole-4-carboxylic acid (1-amino-isoquinolin-6-ylmethyl)-amide], the IC50 is more than 40 µM against Human KLK1, more than 10000 nM at Factor XIIa and 0.00216 µM on Human plasma kallikrein. This compound also displayed a Cmax in series [2] (single po dose 10 mg/kg) of 642 ng/mL. In series [2] (single po dose 10 mg/kg), the Tmax is 75 min.
In the case of `Cc1cnn(Cc2ccc(Cn3cc(C(=O)NCc4cnc5[nH]ccc5c4)nn3)cc2)c1` [Example 115, 1-[4-(4-Methyl-pyrazol-1-ylmethyl)-benzyl]-1H-[1,2,3]triazole-4-carboxylic acid (1H-pyrrolo[2,3-b]pyridin-5-ylmethyl)-amide], the IC50 against Human KLK1 was more than 10 µM; against Factor XIIa, more than 10000 nM; at Human plasma kallikrein it was 0.177 µM.
Take `Cc1cnn(Cc2ccc(Cn3cc(C(=O)NCc4cc5cc[nH]c5nc4C)nn3)cc2)c1` [Example 116, 1-[4-(4-Methyl-pyrazol-1-ylmethyl)-benzyl]-1H-[1,2,3]triazole-4-carboxylic acid (6-methyl-1H-pyrrolo[2,3-b]pyridin-5-ylmethyl)-amide]: the IC50 on Human KLK1 was more than 10 µM; against Factor XIIa, more than 10000 nM; on Human plasma kallikrein it was 0.507 µM.
For the compound `Cc1cnn(Cc2ccc(Cn3cc(C(=O)NCc4cnc5[nH]ccc5c4)cn3)cc2)c1` [Example 117, 1-[4-(4-Methyl-pyrazol-1-ylmethyl)-benzyl]-1H-pyrazole-4-carboxylic acid (1H-pyrrolo[2,3-b]pyridin-5-ylmethyl)-amide], the IC50 was more than 10 µM against Human KLK1, more than 10000 nM against Factor XIIa and 0.078 µM at Human plasma kallikrein. Besides, the Cmax in series [2] (single po dose 10 mg/kg) amounted to 98 ng/mL. The Tmax in [2] (single po dose 10 mg/kg) is 45 min.
For the compound `Cc1cnn(Cc2ccc(Cn3cc(C(=O)NCc4c(C)nc5[nH]ccc5c4C)cn3)cc2)c1` [Example 118, 1-[4-(4-Methyl-pyrazol-1-ylmethyl)-benzyl]-1H-pyrazole-4-carboxylic acid (4,6-dimethyl-1H-pyrrolo[2,3-b]pyridin-5-ylmethyl)-amide], the values for the IC50 at Human KLK1, on Factor XIIa and on Human plasma kallikrein were more than 40 µM, more than 40000 nM and 0.014 µM, respectively.
On the same counts, the results for `Cc1cnn(Cc2ccc(Cn3cc(C(=O)NCc4cnc5[nH]ccc5c4)c(C4CC4)n3)cc2)c1` [Example 120, 3-Cyclopropyl-1-[4-(4-methyl-pyrazol-1-ylmethyl)-benzyl]-1H-pyrazole-4-carboxylic acid (1H-pyrrolo[2,3-b]pyridin-5-ylmethyl)-amide] are more than 10 µM, more than 10000 nM and 0.118 µM.
On the same counts, the results for `Cc1cnn(Cc2ccc(Cn3cc(C(=O)NCc4cccc5[nH]ccc45)c(C(F)(F)F)n3)cc2)c1` [Example 123, 1-[4-(4-Methyl-pyrazol-1-ylmethyl)-benzyl]-3-trifluoromethyl-1H-pyrazole-4-carboxylic acid (1H-indol-4-ylmethyl)-amide] are more than 10 µM, more than 10000 nM and 0.545 µM.
Turning to `Cc1cnn(Cc2ccc(Cn3cc(C(=O)NCc4cccc5[nH]ncc45)c(C(F)(F)F)n3)cc2)c1` [Example 124, 1-[4-(4-Methyl-pyrazol-1-ylmethyl)-benzyl]-3-trifluoromethyl-1H-pyrazole-4-carboxylic acid (1H-indazol-4-ylmethyl)-amide], the IC50 was 7.23 µM on Human KLK1, more than 10000 nM at Factor XIIa and 0.146 µM at Human plasma kallikrein.
For `O=C(NCc1cccc2[nH]ncc12)c1cn(Cc2ccc(Cn3ccccc3=O)cc2)nc1C(F)(F)F` [Example 126, 1-[4-(2-Oxo-2H-pyridin-1-ylmethyl)-benzyl]-3-trifluoromethyl-1H-pyrazole-4-carboxylic acid (1H-indazol-4-ylmethyl)-amide], the IC50 on Human KLK1 is more than 10 µM; against Factor XIIa, more than 10000 nM; on Human plasma kallikrein, 0.0229 µM. This compound also registered a Cmax in series [2] (single po dose 10 mg/kg) of 56 ng/mL. For the same compound, in series [2] (single po dose 10 mg/kg), the Tmax is 30 min.
Ecallantide: the anaphylactic reactions entry in [3] is on record as “anaphylactic reactions”.

Source of the values: patent publication US9533987B2, “Heterocyclic derivates” (KALVISTA PHARMACEUTICALS LIMITED, priority 2013, dated 2017).
